Data as given in ChEMBL document CHEMBL4513134, “CO-ADD screening of University of Queensland (Australia) compounds” (2021).

Tested on: HEK293
Experiment: cells
Assay type: functional, Homo sapiens, ATCC CRL1573
Conditions: Homo sapiens, ATCC CRL1573, HEK293; ASSAY_TEST Inhibition of Cell Viability; detection method Resazurin; Fluorescence (ex560/em590); MEDIA DMEM with 10% FBS; plate type 384well; TC; CORNING #3712; time 18 hr; read-out: CC50

| Structure (SMILES) | CC50 |
| --- | --- |
| Cn1c([N+](=O)[O-])cnc1C(=O)OC1CCCCC1 | > 32 µg/mL |
| CN(Cc1ccccc1)C(=O)c1ncc([N+](=O)[O-])n1C | > 32 µg/mL |
| Cn1c([N+](=O)[O-])cnc1C(=O)NC1CCCCC1 | > 32 µg/mL |

Tested on: Cryptococcus neoformans
Experiment: not given
Conditions: not given

| MIC | Structure (SMILES) |
| --- | --- |
| > 32 µg/mL | Cn1c([N+](=O)[O-])cnc1C(=O)OC1CCCCC1 |
| > 32 µg/mL | CN(Cc1ccccc1)C(=O)c1ncc([N+](=O)[O-])n1C |
| > 32 µg/mL | Cn1c([N+](=O)[O-])cnc1C(=O)NC1CCCCC1 |

Tested on: Staphylococcus aureus
Experiment: microbe, parasite or virus in culture
Conditions: ATCC 43300, 18 h, ASSAY_TEST Inhibition of Bacterial Growth, detection method Absorption (OD600), MEDIA CAMHB, plate type 384well, NBS, CORNING #3640
Description: Antibacterial activity against Staphylococcus aureus MRSA ATCC 43300 (CO-ADD:GP_020); MIC in CAMBH media, using NBS plates, by OD(600)

| MIC | Structure (SMILES) |
| --- | --- |
| > 32 µg/mL | Cn1c([N+](=O)[O-])cnc1C(=O)OC1CCCCC1 |
| > 32 µg/mL | CN(Cc1ccccc1)C(=O)c1ncc([N+](=O)[O-])n1C |
| > 32 µg/mL | Cn1c([N+](=O)[O-])cnc1C(=O)NC1CCCCC1 |

Tested on: Escherichia coli
Experiment: microbe, parasite or virus in culture
Conditions: ATCC 25922, 18 h, ASSAY_TEST Inhibition of Bacterial Growth, detection method Absorption (OD600), MEDIA CAMHB, plate type 384well, NBS, CORNING #3640
Description: Antibacterial activity against Escherichia coli ATCC 25922 (CO-ADD:GN_001); MIC in CAMBH media using NBS plates, by OD(600)

| MIC | Structure (SMILES) |
| --- | --- |
| > 32 µg/mL | Cn1c([N+](=O)[O-])cnc1C(=O)OC1CCCCC1 |
| > 32 µg/mL | CN(Cc1ccccc1)C(=O)c1ncc([N+](=O)[O-])n1C |
| > 32 µg/mL | Cn1c([N+](=O)[O-])cnc1C(=O)NC1CCCCC1 |

Tested on: Klebsiella pneumoniae
Experiment: microbe, parasite or virus in culture
Conditions: ATCC 700603, 18 h, ASSAY_TEST Inhibition of Bacterial Growth, detection method Absorption (OD600), MEDIA CAMHB, plate type 384well, NBS, CORNING #3640
Description: Antibacterial activity against Klebsiella pneumoniae MDR ATCC 70063 (CO-ADD:GN_003); MIC in CAMBH media using NBS plates, by OD(600)

| MIC | Structure (SMILES) |
| --- | --- |
| > 32 µg/mL | Cn1c([N+](=O)[O-])cnc1C(=O)OC1CCCCC1 |
| > 32 µg/mL | CN(Cc1ccccc1)C(=O)c1ncc([N+](=O)[O-])n1C |
| > 32 µg/mL | Cn1c([N+](=O)[O-])cnc1C(=O)NC1CCCCC1 |

Tested on: Pseudomonas aeruginosa
Experiment: microbe, parasite or virus in culture
Conditions: ATCC 27853, 18 h, ASSAY_TEST Inhibition of Bacterial Growth, detection method Absorption (OD600), MEDIA CAMHB, plate type 384well, NBS, CORNING #3640
Description: Antibacterial activity against Pseudomonas aeruginosa ATCC 27853 (CO-ADD:GN_042); MIC in CAMBH media using NBS plates, by OD(600)

| MIC | Structure (SMILES) |
| --- | --- |
| > 32 µg/mL | Cn1c([N+](=O)[O-])cnc1C(=O)OC1CCCCC1 |
| > 32 µg/mL | CN(Cc1ccccc1)C(=O)c1ncc([N+](=O)[O-])n1C |
| > 32 µg/mL | Cn1c([N+](=O)[O-])cnc1C(=O)NC1CCCCC1 |

Tested on: Acinetobacter baumannii
Experiment: microbe, parasite or virus in culture
Conditions: ATCC 19606, 18 h, ASSAY_TEST Inhibition of Bacterial Growth, detection method Absorption (OD600), MEDIA CAMHB, plate type 384well, NBS, CORNING #3640
Description: Antibacterial activity against Acinetobacter baumannii ATCC 19606 (CO-ADD:GN_034); MIC in CAMBH media using NBS plates, by OD600

| MIC | Structure (SMILES) |
| --- | --- |
| > 32 µg/mL | Cn1c([N+](=O)[O-])cnc1C(=O)OC1CCCCC1 |
| > 32 µg/mL | CN(Cc1ccccc1)C(=O)c1ncc([N+](=O)[O-])n1C |
| > 32 µg/mL | Cn1c([N+](=O)[O-])cnc1C(=O)NC1CCCCC1 |

Tested on: Candida albicans
Experiment: microbe, parasite or virus in culture
Conditions: ATCC 90028, ASSAY_TEST Inhibition of Fungal Growth, detection method Absorption (OD530), plate type 384well, NBS, CORNING #3640
Description: Antifungal activity against Candida albicans ATCC 90028 (CO-ADD:FG_001); MIC in YNB media using NBS plates, by OD630

| MIC | Structure (SMILES) |
| --- | --- |
| > 32 µg/mL | Cn1c([N+](=O)[O-])cnc1C(=O)OC1CCCCC1 |
| > 32 µg/mL | CN(Cc1ccccc1)C(=O)c1ncc([N+](=O)[O-])n1C |
| > 32 µg/mL | Cn1c([N+](=O)[O-])cnc1C(=O)NC1CCCCC1 |
